US20250136576A1, “Heterocyclic Compounds and Uses Thereof” (ACEA Therapeutics, Inc., priority 2021, published 2025)

test system: KM12-luc cells; experiment: Cell proliferation and growth inhibition assay (CCK-8) in KM12-luc; assay type: cell-based; conditions: KM12-Luc, 72 h, KM12-luc cells, treated with test compounds for 72 hrs, CCK-8 viability; read-out: NTRK IC50 in KM12-luc
Outline: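 Cells were grown at 37 °C, 5% CO2 with 10% FBS: MV-4-11 in IMDM, H1975 in RPMI 1640, KM12-luc in DMEM. Viability was read by CCK-8 (1-4 hrs reagent incubation, absorbance at OD450). IC50 came from a non-linear sigmoidal dose-response fit.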

Going from CC(=O)Nc1cc(Nc2ncc(C(F)(F)F)c(-c3c[nH]c4ccc(F)cc34)n2)ccc1N(C)CCN(C)C [Compound 321, N-(2-((2-(dimethylamino)ethyl)(methyl)amino)-5-((4-(5-fluoro-1H-indol-3-yl)-5-(trifluoromethyl)pyrimidin-2-yl)amino)phenyl)acetamide] to CC(=O)Nc1cc(Nc2ncc(C(F)(F)F)c(-c3c[nH]c4cc(F)ccc34)n2)ccc1N(C)CCN(C)C [Compound 328a, N-(2-((2-(dimethylamino)ethyl)(methyl)amino)-5-((4-(6-fluoro-1H-indol-3-yl)-5-(trifluoromethyl)pyrimidin-2-yl)amino)phenyl)acetamide], the IC50 rises from 14.8 nM to 34.1 nM (2.3-fold). The first is the more potent here.

Compared with CN(C)CCN(C)c1ccc(Nc2ncc(C(F)(F)F)c(-c3c[nH]c4ccc(F)cc34)n2)cc1N [Compound 322, N^1-(2-(dimethylamino)ethyl)-N^4-(4-(5-fluoro-1H-indol-3-yl)-5-(trifluoromethyl)pyrimidin-2-yl)-N^1-methylbenzene-1,2,4-triamine], CN(C)CCN(C)c1ccc(Nc2ncc(C(F)(F)F)c(-c3c[nH]c4cc(F)ccc34)n2)cc1N [Compound 329, N^1-(2-(dimethylamino)ethyl)-N^4-(4-(6-fluoro-1H-indol-3-yl)-5-(trifluoromethyl)pyrimidin-2-yl)-N^1-methylbenzene-1,2,4-triamine] is 8.7-fold higher in IC50: 8.3 nM for the first, 72.1 nM for the second. The first is the more potent here.

Compared with CCN(CCN(C)C)c1ccc(Nc2ncc(C(F)(F)F)c(-c3c[nH]c4ccc(F)cc34)n2)cc1NC(C)=O [Compound 323, N-(2-((2-(dimethylamino)ethyl)(ethyl)amino)-5-((4-(5-fluoro-1H-indol-3-yl)-5-(trifluoromethyl)pyrimidin-2-yl)amino)phenyl)acetamide], CCN(CCN(C)C)c1ccc(Nc2ncc(C(F)(F)F)c(-c3c[nH]c4cc(F)ccc34)n2)cc1NC(C)=O [Compound 331a, N-(2-((2-(dimethylamino)ethyl)(ethyl)amino)-5-((4-(6-fluoro-1H-indol-3-yl)-5-(trifluoromethyl)pyrimidin-2-yl)amino)phenyl)acetamide] is 1.7-fold higher in IC50: 18.9 nM for the first, 32.3 nM for the second.

Going from CCN(CCN(C)C)c1ccc(Nc2ncc(C(F)(F)F)c(-c3c[nH]c4ccc(F)cc34)n2)cc1N [Compound 324, N^1-(2-(dimethylamino)ethyl)-N^1-ethyl-N^4-(4-(5-fluoro-1H-indol-3-yl)-5-(trifluoromethyl)pyrimidin-2-yl)benzene-1,2,4-triamine] to CCN(CCN(C)C)c1ccc(Nc2ncc(C(F)(F)F)c(-c3c[nH]c4cc(F)ccc34)n2)cc1N [Compound 332, N^1-(2-(dimethylamino)ethyl)-N^1-ethyl-N^4-(4-(6-fluoro-1H-indol-3-yl)-5-(trifluoromethyl)pyrimidin-2-yl)benzene-1,2,4-triamine], the IC50 rises from 17.5 nM to 127 nM (7.3-fold). The first is the more potent here.

CC(=O)Nc1cc(Nc2ncc(C(F)(F)F)c(-c3cn(C)c4ccc(F)cc34)n2)ccc1N(C)CCN(C)C [Compound 325, N-(2-((2-(dimethylamino)ethyl)(methyl)amino)-5-((4-(5-fluoro-1-methyl-1H-indol-3-yl)-5-(trifluoromethyl)pyrimidin-2-yl)amino)phenyl)acetamide] and CC(=O)Nc1cc(Nc2ncc(C(F)(F)F)c(-c3cn(C)c4cc(F)ccc34)n2)ccc1N(C)CCN(C)C [Compound 333, N-(2-((2-(dimethylamino)ethyl)(methyl)amino)-5-((4-(6-fluoro-1-methyl-1H-indol-3-yl)-5-(trifluoromethyl)pyrimidin-2-yl)amino)phenyl)acetamide] are within 1.5-fold of each other in IC50: 39.4 nM for the first, 28.5 nM for the second.

Compared with CN(C)CCN(C)c1ccc(Nc2ncc(C(F)(F)F)c(-c3cn(C)c4ccc(F)cc34)n2)cc1N [Compound 326, N^1-(2-(dimethylamino)ethyl)-N^4-(4-(5-fluoro-1-methyl-1H-indol-3-yl)-5-(trifluoromethyl)pyrimidin-2-yl)-N^1-methylbenzene-1,2,4-triamine], CN(C)CCN(C)c1ccc(Nc2ncc(C(F)(F)F)c(-c3cn(C)c4c(F)cccc34)n2)cc1N [Compound 347, N^1-(2-(dimethylamino)ethyl)-N^4-(4-(7-fluoro-1-methyl-1H-indol-3-yl)-5-(trifluoromethyl)pyrimidin-2-yl)-N^1-methylbenzene-1,2,4-triamine] is 2-fold higher in IC50: 58.2 nM for the first, 114 nM for the second. The first is the more potent here.

Compared with CN(C)CCN(C)c1ccc(Nc2ncc(C(F)(F)F)c(-c3cn(C)c4ccc(F)cc34)n2)cc1NCC(F)(F)F [Compound 327, N^1-(2-(dimethylamino)ethyl)-N^4-(4-(5-fluoro-1-methyl-1H-indol-3-yl)-5-(trifluoromethyl)pyrimidin-2-yl)-N^1-methyl-N^2-(2,2,2-trifluoroethyl)benzene-1,2,4-triamine], CC(=O)Nc1cc(Nc2ncc(C(F)(F)F)c(-c3cn(C)c4c(F)cccc34)n2)ccc1N(C)CCN(C)C [Compound 346, N-(2-((2-(dimethylamino)ethyl)(methyl)amino)-5-((4-(7-fluoro-1-methyl-1H-indol-3-yl)-5-(trifluoromethyl)pyrimidin-2-yl)amino)phenyl)acetamide] is 2.5-fold lower in IC50: 260 nM for the first, 105 nM for the second.

CC(=O)Nc1cc(Nc2nc(-c3c[nH]c4cc(F)ccc34)ncc2C(F)(F)F)ccc1N(C)CCN(C)C [Compound 328b, N-(2-((2-(dimethylamino)ethyl)(methyl)amino)-5-((2-(6-fluoro-1H-indol-3-yl)-5-(trifluoromethyl)pyrimidin-4-yl)amino)phenyl)acetamide] and CCN(CCN(C)C)c1ccc(Nc2nc(-c3c[nH]c4cc(F)ccc34)ncc2C(F)(F)F)cc1NC(C)=O [Compound 331b, N-(2-((2-(dimethylamino)ethyl)(ethyl)amino)-5-((2-(6-fluoro-1H-indol-3-yl)-5-(trifluoromethyl)pyrimidin-4-yl)amino)phenyl)acetamide] are within 1.5-fold of each other in IC50: 2420 nM for the first, 2020 nM for the second.

First: CCC(=O)Nc1cc(Nc2ncc(C(F)(F)F)c(-c3c[nH]c4cc(F)ccc34)n2)ccc1N(CC)CCN(C)C [Compound 330a, N-(2-((2-(dimethylamino)ethyl)(ethyl)amino)-5-((4-(6-fluoro-1H-indol-3-yl)-5-(trifluoromethyl)pyrimidin-2-yl)amino)phenyl)propionamide]
Second: CCC(=O)Nc1cc(Nc2nc(-c3c[nH]c4cc(F)ccc34)ncc2C(F)(F)F)ccc1N(CC)CCN(C)C [Compound 330b, N-(2-((2-(dimethylamino)ethyl)(ethyl)amino)-5-((2-(6-fluoro-1H-indol-3-yl)-5-(trifluoromethyl)pyrimidin-4-yl)amino)phenyl)propionamide]
The IC50 of the first is lower: 292 nM for the first, > 3330 nM for the second. The first is the more potent here.

Going from CCN(CCN(C)C)c1ccc(Nc2ncc(C(F)(F)F)c(-c3c[nH]c4c(F)cccc34)n2)cc1NC(C)=O [Compound 336, N-(2-((2-(dimethylamino)ethyl)(ethyl)amino)-5-((4-(7-fluoro-1H-indol-3-yl)-5-(trifluoromethyl)pyrimidin-2-yl)amino)phenyl)acetamide] to CC(=O)Nc1cc(Nc2ncc(C(F)(F)F)c(-c3c[nH]c4c(F)cccc34)n2)ccc1N(CCN(C)C)C(C)=O [Compound 341, N-(2-acetamido-4-((4-(7-fluoro-1H-indol-3-yl)-5-(trifluoromethyl)pyrimidin-2-yl)amino)phenyl)-N-(2-(dimethylamino)ethyl)acetamide], the IC50 rises from 64.8 nM to 248 nM (3.8-fold).

CN(C)CCN(C)c1cc(F)c(Nc2ncc(C(F)(F)F)c(-c3c[nH]c4c(F)cccc34)n2)cc1N [Compound 339, N^1-(2-(dimethylamino)ethyl)-5-fluoro-N^4-(4-(7-fluoro-1H-indol-3-yl)-5-(trifluoromethyl)pyrimidin-2-yl)-N^1-methylbenzene-1,2,4-triamine] and CC(=O)Nc1cc(Nc2ncc(C(F)(F)F)c(-c3c[nH]c4c(F)cccc34)n2)c(F)cc1N(C)CCN(C)C [Compound 340, N-(2-((2-(dimethylamino)ethyl)(methyl)amino)-4-fluoro-5-((4-(7-fluoro-1H-indol-3-yl)-5-(trifluoromethyl)pyrimidin-2-yl)amino)phenyl)acetamide] are within 1.5-fold of each other in IC50: 75.2 nM for the first, 57.4 nM for the second.

Going from Cc1nc2cc(Nc3ncc(C(F)(F)F)c(-c4c[nH]c5c(F)cccc45)n3)ccc2n1CCN(C)C [Compound 342, 1-(2-(dimethylamino)ethyl)-N-(4-(7-fluoro-1H-indol-3-yl)-5-(trifluoromethyl)pyrimidin-2-yl)-2-methyl-1H-benzo[d]imidazol-5-amine] to Cc1nc2cc(Nc3ncc(C(F)(F)F)c(-c4cn(C)c5c(F)cccc45)n3)ccc2n1CCN(C)C [Compound 351, 1-(2-(dimethylamino)ethyl)-N-(4-(7-fluoro-1-methyl-1H-indol-3-yl)-5-(trifluoromethyl)pyrimidin-2-yl)-2-methyl-1H-benzo[d]imidazol-5-amine], the IC50 rises from 24.6 nM to 172 nM (7-fold). The first is the more potent here.

CCN(CCN(C)C)c1ccc(Nc2ncc(C(F)(F)F)c(-c3cn(C)c4c(F)cccc34)n2)cc1NC(C)=O [Compound 348, N-(2-((2-(dimethylamino)ethyl)(ethyl)amino)-5-((4-(7-fluoro-1-methyl-1H-indol-3-yl)-5-(trifluoromethyl)pyrimidin-2-yl)amino)phenyl)acetamide] and CC(=O)Nc1cc(Nc2ncc(C(F)(F)F)c(-c3cn(C)c4c(F)cccc34)n2)ccc1N(CCN(C)C)C(C)=O [Compound 350, N-(2-acetamido-4-((4-(7-fluoro-1-methyl-1H-indol-3-yl)-5-(trifluoromethyl)pyrimidin-2-yl)amino)phenyl)-N-(2-(dimethylamino)ethyl)acetamide] are within 1.5-fold of each other in IC50: 87.8 nM for the first, 126 nM for the second.

Going from CCN(CCN(C)C)c1ccc(Nc2ncc(C(F)(F)F)c(-c3cn(C)c4c(F)cccc34)n2)cc1N [Compound 349, N^1-(2-(dimethylamino)ethyl)-N^1-ethyl-N^4-(4-(7-fluoro-1-methyl-1H-indol-3-yl)-5-(trifluoromethyl)pyrimidin-2-yl)benzene-1,2,4-triamine] to CC(=O)Nc1cc(Nc2ncc(C(F)(F)F)c(-c3cn(C)c4c(F)cccc34)n2)ccc1OCCN(C)C [Compound 352, N-(2-(2-(dimethylamino)ethoxy)-5-((4-(7-fluoro-1-methy-1H-indol-3-yl)-5-(trifluoromethyl)pyrimidin-2-yl)amino)phenyl)acetamide], the IC50 falls from 245 nM to 42.1 nM (5.8-fold). The second is the more potent here.
